Measured values reported in patent publication US11364231B2, “Methods of treating radiation induced gastrointestinal syndrome (RIGS) and related disease states using YEL002/BCN057” (priority 2017, dated 2022).
Values joined by “and” are separate entries in the source; they are usually repeats but may differ in a detail not shown here. Equal values may be shown once. “Also recorded” adds a separate entry of the source.

Assays:
[1] = test system: β-catenin target genes; assay: Real-time PCR of β-catenin target genes in crypt cells; format: in vivo; settings: crypt epithelial cells, irradiated mice treated with BCN057 vs irradiated control
Experimental: To compare the mRNA levels of β-catenin target genes in intestinal crypt cells from irradiated mice treated with BCN057 or PBS real-time PCR were performed using primer pairs for the genes Ephb2, Ascl, Olf, Tcf, Lef, Sox9 and Axin. RNA was isolated from crypt cells using RNeasy mini kit from Qiagen. Preparation of cDNA followed by real-time PCR array was performed according to manufacturer protocol (Qiagen).

[2] = test system: human colonic organoid developed from non-malignant tissue; assay: Irradiated human colonic organoids from non-malignant tissue; format: cell-based
Experimental: FIG. 13. […] Note presence of budding crypt like structure in BCN057 treated group.
To examine the effect of BCN057 on human intestinal, epithelial tissue surgical specimen collected from normal colon at least 10 cm apart from malignant site was used to develop ex vivo crypt organoid. At a dose level of 8 Gy all the budding crypts have been disappeared in the organoids. […] The effect of BCN057 on mRNA level of β-catenin target genes in organoids was also evaluated.

[3] = test system: Lgr5+ve ISC in Lgr5/GFP-IRES-Cre-ERT2 knock-in mice; assay: Lgr5+ve ISC survival in vivo after AIR; settings: 15 Gy AIR then BCN057; beyond 48 hrs post AIR, p<0.001
From the text: To study this effect in vivo, the role of BCN057 in ISC survival was examined by exposing Lgr5/GFP-IRES-Cre-ERT2 knock-in mice to 15 Gy to AIR and then treated with BCN057. Lgr5+ve ISC had disappeared from crypt base within 48 hrs post AIR in untreated mice.

[4] = test system: intestinal epithelial integrity; assay: FITC-dextran permeability assay; format: in vivo, mice
Experimental: Since dextran is unable to cross the GI epithelia unless it is compromised, dextran in the blood is a good indicator of epithelial damage. Blood FITC-dextran levels were measured at 4 h after gavage.
At day 5 post mice exposed to ABI and/or treated with BCN057 were gavaged with 0.6 mg g-1 body weight of a FITC-dextran solution ([…] size, Sigma). In all, four hrs. after gavage mice were killed and serum was obtained with cardiac puncture. Samples were measured in a 96-well plate using a Flexstation ii 384 multiwell fluorometer (Molecular Devices). A standard curve was constructed using mouse serum having increasing amounts of FITC-dextran to determine the serum levels of FITC-dextran in different treatment groups.

[5] = test system: C57B16 mice exposed to AIR; assay: Survival after lethal abdominal irradiation (AIR), RIGS model; settings: for survival: BCN057 s.c. 150 mg/kg from 24 hrs post AIR, single dose/day up to day 8, n=25/group, vehicle/untreated died within 15 days
Experimental: FIG. 1A. […] A 3 cm area of the mice containing the GI was irradiated (irradiation field), thus shielding the upper thorax, head and neck as well as lower and upper extremities, protecting a significant portion of the bone marrow, thus inducing predominantly RIGS. Mice exposed to AIR were treated with BCN057 (s.c.) (150 mg/kg of body weight) at 24 hrs post irradiation and continued up to day 8 (single dose/day).
To examine the radio-mitigating role of BCN057 against RIGS, C57B16 mice were exposed to graded doses of abdominal irradiation (AIR) (14-15Gy) after shielding the thorax, head and neck, and extremities, thus protecting the bone marrow.
Male C57B16/6J (Jackson laboratories) mice (five to six weeks old) were maintained ad libitum and all studies were performed under the guidelines and protocols of the Institutional Animal Care and Use Committee of the University of Kansas medical center.
AIR was performed on anaesthetized mice (with a continuous flow 1.5 ml min-1 of 1.5% isoflurane in pure oxygen) using the small animal radiation research platform (SARRP, XStrahl, Surrey, UK). A 2 cm area of the mice containing the GI was irradiated (FIG. 2), thus shielding the upper thorax, head and neck as well as lower and upper extremities, protecting a significant portion of the bone marrow, thus inducing predominantly RIGS. A radiation dose of 14-15 Gy was delivered to the midline of the GI, ensuring homogeneous delivery by performing half of the total irradiation from the anterior-posterior direction and the second half from the posterior-anterior direction. The total irradiation time to deliver the intended dose was calculated with respect to dose rate, radiation field size and fractional depth dose to ensure accurate radiation dosimetry.

[6] = test system: irradiated intestinal epithelium (jejunum); assay: Jejunum histology and crypt proliferation after AIR; format: in vivo
From the text: Since radiation doses>8 Gy induces cell cycle arrest and apoptosis of the crypt epithelial cells within day 1 post-radiation, resulting in a decrease in regenerating crypt colonies by day 3.5 and ultimately villi denudation by day 7 post-radiation exposure, animals were sacrificed when moribund or at 3.5 days after AIR for time course experiments and intestines were collected for histology. The intestine of each animal was dissected, washed in PBS to remove intestinal contents and the jejunum was fixed in 10% neutral-buffered formalin before paraffin embedding. Tissue was routinely processed and cut into 5 μm sections for haematoxylin and eosin and immunohistochemical staining. All haemotoxylin and eosin (HE) (Fisher Scientific, Pittsburgh, Pa.) staining was performed at the Pathology Core Facility in the KUMC Cancer Center.
To visualize villous cell proliferation mid-jejunum was collected for paraffin embedding and Ki67 immunohistochemistry. Tissue sections were routinely deparaffinized and rehydrated through graded alcohols and incubated overnight at room temperature with a monoclonal anti Ki67 antibody. Nuclear staining was visualized using streptavidin-peroxidase and diaminobenzidine (DAB) and samples were lightly counterstained with haematoxylin. […] The proliferation rate was calculated as the percentage of KI67-positive cells over the total number of cells in each crypt. A total of 60 crypts were examined per animal.
Crypt depth was independently and objectively analyzed and quantitated in a blind manner from coded digital photographs of crypts from HE-stained slides using ImageJ 1.37 software to measure the height in pixels from the bottom of the crypt to the crypt villus junction. Villi length was determined by measuring the length from the crypt villus junction to villous tip. This measurement in pixels was converted to length (in μm) by dividing with the following a conversion factor (1.46 pixels μm-1).

[7] = jejunum, BCN057 at 24 hrs after AIR vs irradiated control

Compound: COc1ccc2cc(-c3nc4ccc(C)cn4c3NCc3ccco3)c(=O)[nH]c2c1 [BCN057, 3-(3((furan-2-ylmethyl)ammo)-6-methylimidazo[1,2-a]pyridine-2-yl)-6-methoxyquinolin-2(1H)-one]
- mRNA level of β-catenin target genes [1]: several fold increases
- budding crypts / organoid structure ([2]; 8Gy, BCN057 (20 ug/ml) at 1 hr post irradiation, 72 hrs): complete restitution of organoid structure; also recorded: rescued the organoids from radiation toxicity
- Ki67 staining in budding crypt like structure ([2]; 8Gy, BCN057 treated organoids): positive staining
- ratio of budding crypt to total number of crypts ([2]; irradiated organoids 4Gy and 8Gy, vs untreated irradiated control): increased
- Lgr5+ve ISC in jejunal crypts [3]: significant preservation; also recorded: presence of GFP+ve Lgr5+ve ISCs
- serum FITC-dextran level ([4]; irradiated (AIR) mice treated with BCN057 vs irradiated untreated control, 4 h after gavage): significantly reduced; also recorded: lower serum dextran level
- serum dextran level ([4]; unirradiated BCN057 treated mice vs irradiated control): lower serum dextran level
- duration of survival post AIR ([5]; 14-15 Gy AIR, BCN057 at 24 hrs post AIR): > 30 days and > 60 days
- survival ([5]; 14Gy AIR): 80%
- survival ([5]; 15Gy AIR): 60%
- symptoms / clinical conditions in surviving treated mice ([5]; after AIR/PBI, observed up to day 30-60 post exposure): without showing any symptoms of RIGS; also recorded: did not develop any clinical conditions; also recorded: without any symptom of gastroenteritis or any other health complications
- toxicity to normal mice ([5]; normal (un-irradiated) mice): do not confer any toxicity
- number of crypt in jejunum ([6]; BCN057 at 24 hrs after AIR vs irradiated control): increase in number of crypts
- crypt villus structure / epithelium (HE staining) ([6]; jejunum, 3.5 day after AIR, BCN057 at 24 hrs post AIR): normal crypt villus structure; also recorded: restitution of epithelium
- % of Ki67 positive crypt cells [6, 7]: increase in crypt cell proliferation
- Crypt Depth villi length [6, 7]: preserved villous length; also recorded: increase
